The record followed here is patent US20230365589A1, “NOVEL AMINE DERIVATIVES” (Sumitomo Pharma Co., Ltd., priority 2020, published 2023).

Common to all, as to format: biochemical
One assay addresses T1, DYRK1A (Homo sapiens, UniProt Q13627).
T1 construct: purchased Carna Biosciences, Inc. 04-130
Briefly: Inhibition test on activity of DYRK family, mobility shift assay (MSA): DYRK1A. The gist of the method: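 Mobility shift assay with recombinant DYRK1A (0.2 ng/μL enzyme solution), FITC-DYRKtide substrate (4 μM in substrate mix), 100 μM ATP in substrate mix, HEPES pH 7.5 buffer with MgCl2; 1 h at room temperature. Phosphorylated vs unphosphorylated peptide peaks quantified; IC50 from regression of inhibition rate against log concentration.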

The target in another assay is T2, DYRK2 (Homo sapiens, UniProt Q92630).
T2 construct: purchased Carna Biosciences, Inc. 04-132
T2 sequence (Q92630 74-601 limits assumed): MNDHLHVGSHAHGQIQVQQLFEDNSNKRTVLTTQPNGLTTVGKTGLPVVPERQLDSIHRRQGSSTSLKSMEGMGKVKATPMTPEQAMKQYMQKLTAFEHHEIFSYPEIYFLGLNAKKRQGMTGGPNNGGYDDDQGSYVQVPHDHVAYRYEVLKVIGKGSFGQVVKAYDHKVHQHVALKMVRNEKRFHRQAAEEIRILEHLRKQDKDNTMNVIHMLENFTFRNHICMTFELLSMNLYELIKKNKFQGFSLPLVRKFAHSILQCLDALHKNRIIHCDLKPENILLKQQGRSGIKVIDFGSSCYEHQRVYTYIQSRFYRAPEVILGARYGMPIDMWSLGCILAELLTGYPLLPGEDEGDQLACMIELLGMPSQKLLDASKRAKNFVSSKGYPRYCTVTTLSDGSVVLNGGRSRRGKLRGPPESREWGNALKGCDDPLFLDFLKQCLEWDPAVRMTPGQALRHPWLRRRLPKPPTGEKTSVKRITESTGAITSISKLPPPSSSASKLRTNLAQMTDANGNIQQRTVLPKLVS
Briefly: Inhibition test on activity of DYRK family, mobility shift assay (MSA): DYRK2. The gist of the method: (§1)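 Mobility-shift readout of FITC-DYRKtide phosphorylation in 20 mM HEPES pH 7.5. The substrate mix held 4 µM peptide, 20 mM MgCl2 and ATP at 100 (1A), 200 (1B), 40 (2) or 20 µM (3). Reaction 1 h at room temperature; IC50 from regression of P/(P+S)-based inhibition vs log concentration.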

For a further assay, the target named is T3, DYRK1B (Homo sapiens, UniProt Q9Y463).
T3 construct: purchased Carna Biosciences, Inc. 04-131
T3 sequence (Q9Y463 whole entry): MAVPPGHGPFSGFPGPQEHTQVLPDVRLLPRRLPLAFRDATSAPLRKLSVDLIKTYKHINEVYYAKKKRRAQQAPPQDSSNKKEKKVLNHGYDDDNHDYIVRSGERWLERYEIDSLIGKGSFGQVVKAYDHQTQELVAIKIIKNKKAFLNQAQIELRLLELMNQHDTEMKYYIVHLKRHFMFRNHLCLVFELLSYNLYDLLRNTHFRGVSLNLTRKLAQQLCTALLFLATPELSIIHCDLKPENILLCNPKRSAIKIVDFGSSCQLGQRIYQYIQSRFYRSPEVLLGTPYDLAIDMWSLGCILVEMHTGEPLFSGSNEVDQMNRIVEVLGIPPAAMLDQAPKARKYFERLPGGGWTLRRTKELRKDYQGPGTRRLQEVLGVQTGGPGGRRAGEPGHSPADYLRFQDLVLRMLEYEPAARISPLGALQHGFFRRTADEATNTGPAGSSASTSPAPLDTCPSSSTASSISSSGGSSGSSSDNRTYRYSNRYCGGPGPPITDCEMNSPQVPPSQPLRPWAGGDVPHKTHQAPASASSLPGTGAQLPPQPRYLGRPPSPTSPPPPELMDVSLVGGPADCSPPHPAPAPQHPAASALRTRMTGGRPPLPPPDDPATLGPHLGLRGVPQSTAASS
Description: Inhibition test on activity of DYRK family, mobility shift assay (MSA): DYRK1B. As for the experimental part:
[Inhibition Test on Activity of DYRK Family (DYRK1A, DYRK1B, DYRK2, and DYRK3)]
The kinase activity was measured by mobility shift assay (MSA) method using QuickScout Screening Assist™ MSA (commercially available kit manufactured by Carna Biosciences, Inc.). The substrate of the kinase reaction used was an FITC-labeled DYRKtide peptide included in the kit. An assay buffer [20 mM HEPES, 0.01% Triton X-100™, 2 mM dithiothreitol, pH 7.5]was used to create a substrate mixture solution with a substrate (4 μM), MgCl2(20 mM), and ATP (DYRK1A: 100 μM; DYRK1B: 200 μM; DYRK2: 40 μM; and DYRK3: 20 μM). In addition, kinases (DYRK1A: manufactured by Carna Biosciences, Inc., Cat. No. 04-130; DYRK1B: manufactured by Carna Biosciences, Inc., Cat. No. 04-131; DYRK2; manufactured by Carna Biosciences, Inc., Cat. No. 04-132; and DYRK3; manufactured by Carna Biosciences, Inc., Cat. No. 04-133) were diluted with the assay buffer to prepare enzyme solutions (DYRK1A: 0.2 ng/μL; DYRK1B: 0.08 ng/μL; DYRK2: 0.04 ng/μL; and DYRK3: 0.25 ng/μL). The 10 mM solution of the test compound in DMSO was further diluted with DMSO to 10 levels of the concentration (0.00003 mM, 0.0001 mM, 0.0003 mM, 0.001 mM, 0.003 mM, 0.01 mM, 0.03 mM, 0.1 mM, 0.3 mM, and 1 mM), each of which was subjected to 25-fold dilution with the assay buffer to obtain a drug solution (4% DMSO solution). 5 μL of the drug solution or a control solution (4% DMSO-assay buffer), 5 μL of the substrate mixture solution, and 10 μL of the enzyme solution were mixed in the wells of a polypropylene 384-well plate and allowed to react at room temperature for 1 hour, and then the reaction was quenched by adding 60 μL of the termination buffer included in the kit. Subsequently, the quantities of the substrates (S) and the phosphorylated substrate (P) in the reaction solution were measured using LabChip EZ Reader II system (manufactured by Caliper Life Sciences) according to the protocol of the assay kit.
The heights of the peaks of the “substrate” and the “phosphorylated substrate” were expressed as S and P, respectively, and a blank containing the assay buffer instead of the enzyme solution was also measured.
The inhibition rate (%) of the test compound was calculated according to the following equation:
Inhibition rate (%)=(1−(C−A)/(B−A))×100 • wherein, A, B, and C represent P/(P+S) of the blank well, P/(P+S) of the control solution well, and P/(P+S) of the compound-containing well, respectively.
The IC50 value was calculated via a regression analysis of the inhibition rate and the test compound concentration (logarithmic value).
The inhibiting activities of representative compounds of the present invention are shown against DYRK1A, DYRK1B, DYRK2, and DYRK3 in Tables.

For the next assay, the target named is T4, DYRK3 (Homo sapiens, UniProt O43781).
T4 construct: purchased Carna Biosciences, Inc. 04-133
T4 sequence (O43781 1-568 isoform O43781-2): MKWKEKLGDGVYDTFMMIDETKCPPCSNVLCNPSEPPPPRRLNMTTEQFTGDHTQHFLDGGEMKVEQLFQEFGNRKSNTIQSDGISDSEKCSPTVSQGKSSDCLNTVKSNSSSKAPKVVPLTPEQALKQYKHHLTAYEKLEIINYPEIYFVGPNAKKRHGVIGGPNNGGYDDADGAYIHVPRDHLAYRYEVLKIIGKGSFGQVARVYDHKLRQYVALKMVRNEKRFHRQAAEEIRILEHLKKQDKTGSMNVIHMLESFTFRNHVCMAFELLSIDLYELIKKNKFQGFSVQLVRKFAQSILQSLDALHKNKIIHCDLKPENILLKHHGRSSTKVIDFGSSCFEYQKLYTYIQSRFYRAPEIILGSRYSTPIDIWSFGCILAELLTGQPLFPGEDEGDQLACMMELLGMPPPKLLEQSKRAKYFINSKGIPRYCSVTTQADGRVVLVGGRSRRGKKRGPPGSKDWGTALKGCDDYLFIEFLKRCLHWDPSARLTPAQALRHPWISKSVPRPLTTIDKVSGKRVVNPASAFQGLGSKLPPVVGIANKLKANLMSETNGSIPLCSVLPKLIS
Description: Inhibition test on activity of DYRK family, mobility shift assay (MSA): DYRK3. In a few lines:
as §1

Where [1] appears, read: MSA, FITC-labeled DYRKtide peptide, ATP 100 μM, read-out: Inhibitory activity DYRK 1A (IC50 class).
Setting [2] is: MSA, FITC-labeled DYRKtide peptide, ATP 40 μM, read-out: Inhibitory activity DYRK 2 (IC50 class).
Where [3] appears, read: MSA, FITC-labeled DYRKtide peptide, ATP 200 μM, read-out: Inhibitory activity DYRK 1B (IC50 class).
The mark [4] stands for this setting: MSA, FITC-labeled DYRKtide peptide, ATP 20 μM, read-out: Inhibitory activity DYRK 3 (IC50 class).

Like-named read-outs stand apart in the source and are kept apart here.

On to `O=C1N[C@H]2COCC[C@H]2N1c1nc2c3c(ccc2s1)OCC3` [Example 122, (3aR,7aR)-1-(7,8-dihydrofuro[3,2-e][1,3]benzothiazol-2-yl)hexahydropyrano[3,4-d]imidazol-2(3H)-one], for which the IC50 at DYRK1A (read-out: Inhibitory activity DYRK 1A) is below 10 nM; on DYRK2 (read-out: Inhibitory activity DYRK 2), 100 to 1000 nM; on DYRK1B (read-out: Inhibitory activity DYRK 1B) it was below 10 nM; at DYRK3 (read-out: Inhibitory activity DYRK 3), 100 to 1000 nM.
For `CC[C@H]1C[C@@H]2[C@H](CO1)NC(=O)N2c1nc2c3c(ccc2s1)OCO3` [Example 138, (3aR,6S,7aR)-1-(2H-[1,3]dioxolo[4,5-e][1,3]benzothiazol-7-yl)-6-ethylhexahydropyrano[3,4-d]imidazol-2(3H)-one], the IC50 at DYRK1A (setting [1]) was below 10 nM; at DYRK2 (setting [2]), 100 to 1000 nM; at DYRK1B (setting [3]), below 10 nM; on DYRK3 (setting [4]) it was 100 to 1000 nM.
For the compound `C[C@H]1C[C@@H]2[C@H](CO1)NC(=O)N2c1nc2c3c(ccc2s1)OCO3` [Example 139, (3aR,6S,7aR)-1-(2H-[1,3]dioxolo[4,5-e][1,3]benzothiazol-7-yl]-6-methylhexahydropyrano[3,4-d]imidazol-2(3H)-one], the IC50 at DYRK1A (setting [1]) is below 10 nM; at DYRK2 (setting [2]) it was 100 to 1000 nM; at DYRK1B (setting [3]), below 10 nM; on DYRK3 (setting [4]), 10 to 100 nM.
For `O=C1N[C@H]2CO[C@@H](CF)C[C@H]2N1c1nc2c3c(ccc2s1)OCO3` [Example 140, (3aR,6R,7aR)-1-(2H-[1,3]dioxolo[4,5-e][1,3]benzothiazol-7-yl]-6-(fluoromethyl)hexahydropyrano[3,4-d]imidazol-2(3H)-one], the IC50 is below 10 nM at DYRK1A (setting [1]), 10 to 100 nM at DYRK2 (setting [2]), below 10 nM at DYRK1B (setting [3]) and 10 to 100 nM at DYRK3 (setting [4]).
In the case of `O=C1N[C@@H]2[C@@H](CO)OC[C@@H]2N1c1nc2c3c(ccc2s1)OCC3` [Example 158], the IC50 at DYRK1A (setting [1]) was 100 to 1000 nM; at DYRK2 (setting [2]), at least 1000 nM; on DYRK1B (setting [3]), 100 to 1000 nM; on DYRK3 (setting [4]) it was at least 1000 nM.
As for `O=C1N[C@H]2CO[C@H](CF)[C@H]2N1c1nc2c3c(ccc2s1)OCC3` [Example 159, (3aR,6S,6aS)-1-(7,8-dihydrofuro[3,2-e][1,3]benzothiazol-2-yl)-6-(fluoromethyl)tetrahydro-1H-furo[3,4-d]imidazol-2(3H)-one], the IC50 at DYRK1A (setting [1]) is below 10 nM; at DYRK2 (setting [2]), 10 to 100 nM; on DYRK1B (setting [3]), 10 to 100 nM; on DYRK3 (setting [4]) it was 10 to 100 nM.
As for `C[C@@H]1C[C@@H]2[C@H](CO1)NC(=O)N2c1nc2c3c(ccc2s1)OCC3` [Example 160], the IC50 was 100 to 1000 nM on DYRK1A (setting [1]), at least 1000 nM on DYRK2 (setting [2]), 100 to 1000 nM at DYRK1B (setting [3]) and at least 1000 nM at DYRK3 (setting [4]).
With `C[C@H]1OC[C@@H]2NC(=O)N(c3nc4c5c(ccc4s3)OCC5)[C@@H]21` [Example 161, (3aR,6R,6aS)-1-(7,8-Dihydrofuro[3,2-e][1,3]benzothiazol-2-yl)-6-methyltetrahydro-1H-furo[3,4-d]imidazol-2(3H)-one], the IC50 on DYRK1A (setting [1]) is 10 to 100 nM; at DYRK2 (setting [2]), 10 to 100 nM; at DYRK1B (setting [3]), 10 to 100 nM; at DYRK3 (setting [4]), 100 to 1000 nM.
